Reference: PubChem BioAssay AID248 (DTP/NCI, 2004)
Toxic doses and inconclusive results are not listed. No stated cut-off is given here; in the data, active means T/C of 150% or more; inactive means T/C below 125%.

System: L1210 leukemia ip in BDF1 mice, survival T/C
Test: NCI In Vivo Anticancer Drug Screen. Data for tumor model L1210 Leukemia (intraperitoneal) in B6D2F1 (BDF1) mice
Conditions: endpoint: mean survival time, higher = longer survival
How it was run: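 Read-out is survival time, reported as the treated-group measurement over the vehicle-control measurement.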

[1] = dose: 100.0 mg/kg/injection, schedule: Q01DX009 (ip), vehicle: Klucel (hydroxypropylcellulose) (HPC)
[2] = dose: 100.0 mg/kg/injection, schedule: Q04DX003 (ip), vehicle: Klucel (hydroxypropylcellulose) (HPC)
[3] = dose: 200.0 mg/kg/injection, schedule: Q04DX003 (ip), vehicle: Klucel (hydroxypropylcellulose) (HPC)
[4] = dose: 400.0 mg/kg/injection, schedule: Q04DX003 (ip), vehicle: Klucel (hydroxypropylcellulose) (HPC)
[5] = dose: 100.0 mg/kg/injection, schedule: Q04DX003 (ip), vehicle: saline with Tween-80
[6] = dose: 200.0 mg/kg/injection, schedule: Q04DX003 (ip), vehicle: saline with Tween-80
[7] = dose: 400.0 mg/kg/injection, schedule: Q04DX003 (ip), vehicle: saline with Tween-80
[8] = dose: 100.0 mg/kg/injection, schedule: Q01DX001 (ip), vehicle: saline
[9] = dose: 200.0 mg/kg/injection, schedule: Q01DX001 (ip), vehicle: saline
[10] = dose: 400.0 mg/kg/injection, schedule: Q01DX001 (ip), vehicle: saline
[11] = dose: 100.0 mg/kg/injection, schedule: Q01DX001 (ip), vehicle: carboxymethylcellulose (CMC)

Measured: T/C

Cc1cc(C(C)(C)C)cc(C)c1O
inactive: [1] 97 % of control | [2] 95 % of control | dose: 200.0 mg/kg/injection, schedule: Q01DX009 (ip), vehicle: Klucel (hydroxypropylcellulose) (HPC) 100 % of control | [3] 95 % of control | dose: 400.0 mg/kg/injection, schedule: Q01DX009 (ip), vehicle: Klucel (hydroxypropylcellulose) (HPC) 97 % of control | [4] 95 % of control

COc1cc(/C=N/NC(=O)c2ccccc2)cc(OC)c1OC
inactive: dose: 100.0 mg/kg/injection, schedule: Q01DX009 (ip), vehicle: saline with Tween-80 97 % of control | [5] 90 % of control | dose: 200.0 mg/kg/injection, schedule: Q01DX009 (ip), vehicle: saline with Tween-80 92 % of control | [6] 91 % of control | dose: 400.0 mg/kg/injection, schedule: Q01DX009 (ip), vehicle: saline with Tween-80 97 % of control | [7] 90 % of control

c1ccc2nc(CCC3CCCCN3)ccc2c1 (stereo not drawn)
inactive: dose: 333.0 mg/kg/injection, schedule: Q01DX Z (ip), vehicle: methylcellulose (MC) 101 % of control

CC(C#N)CC12CCCCC1CC/C(=C\c1ccccc1)C2=O (stereo not drawn)
inactive: [2] 102 % of control | [3] 96 % of control | [4] 96 % of control

COC(=O)C1=C(C(=O)OC)C2(OC(C)=O)C=C(OC(C)=O)C1C(C)(C)C2 (stereo not drawn)
inactive: [8] 94 % of control | dose: 100.0 mg/kg/injection, schedule: Q01DX009 (ip), vehicle: acetone 93 % of control | dose: 100.0 mg/kg/injection, schedule: Q04DX003 (ip), vehicle: saline 111 % of control | [9] 102 % of control | dose: 200.0 mg/kg/injection, schedule: Q01DX009 (ip), vehicle: acetone 90 % of control | dose: 200.0 mg/kg/injection, schedule: Q04DX003 (ip), vehicle: saline 103 % of control | [10] 102 % of control | dose: 400.0 mg/kg/injection, schedule: Q01DX009 (ip), vehicle: acetone 88 % of control | dose: 400.0 mg/kg/injection, schedule: Q04DX003 (ip), vehicle: saline 104 % of control

CN(C)C1c2ccccc2-c2cccc(C(=O)O)c21 (stereo not drawn)
inactive: [8] 108 % of control | [9] 103 % of control | [10] 103 % of control

Cc1cc(C)c(CC(=N)c2ccccc2)c(C)c1
inactive: dose: 100.0 mg/kg/injection, schedule: Q01DX001 (ip), vehicle: acetone 96 % of control | dose: 200.0 mg/kg/injection, schedule: Q01DX001 (ip), vehicle: acetone 94 % of control | dose: 400.0 mg/kg/injection, schedule: Q01DX001 (ip), vehicle: acetone 88 % of control

CCCCCCCCCCC(=O)NC1CCC(CC2CCCCC2)CC1 (stereo not drawn)
inactive: dose: 100.0 mg/kg/injection, schedule: Q04DX003 (ip), vehicle: other 101 % of control | dose: 200.0 mg/kg/injection, schedule: Q04DX003 (ip), vehicle: other 103 % of control | dose: 400.0 mg/kg/injection, schedule: Q04DX003 (ip), vehicle: other 101 % of control

O=C(O)c1cc(Br)sc1Br
inactive: [11] 101 % of control | dose: 200.0 mg/kg/injection, schedule: Q01DX001 (ip), vehicle: carboxymethylcellulose (CMC) 95 % of control | dose: 400.0 mg/kg/injection, schedule: Q01DX001 (ip), vehicle: carboxymethylcellulose (CMC) 95 % of control

CC1=NCCc2cc3[nH]c4ccccc4c3cc21
inactive: dose: 25.0 mg/kg/injection, schedule: Q01DX009 (ip), vehicle: Klucel (hydroxypropylcellulose) (HPC) 102 % of control | dose: 25.0 mg/kg/injection, schedule: Q04DX003 (ip), vehicle: Klucel (hydroxypropylcellulose) (HPC) 99 % of control | dose: 50.0 mg/kg/injection, schedule: Q01DX009 (ip), vehicle: Klucel (hydroxypropylcellulose) (HPC) 96 % of control | dose: 50.0 mg/kg/injection, schedule: Q04DX003 (ip), vehicle: Klucel (hydroxypropylcellulose) (HPC) 104 % of control | dose: 100.0 mg/kg/injection, schedule: Q01DX001 (ip), vehicle: Klucel (hydroxypropylcellulose) (HPC) 94 % of control | [1] 94 % of control | [2] 100 % of control

CCOc1ccc(CO)cc1
inactive: [5] 97 % of control | [6] 100 % of control | [7] 89 % of control

CC(=O)Nc1cc2c3ccccc3ccc2c2ccccc12
inactive: [11] 87 % of control
